# From ChEMBL document CHEMBL3507680, “University of Dundee, Gates Library screen for HepG2 cell viability”
# Assay: Human HepG2 cell viability assay in 384 well format
# Type: toxicity, cell-based
# Parameters: dose 125 nL, time 70.5 hour; concentration not given beside the values
# Settings: HepG2 cells, read-out: Inhibition
row,SMILES,cytotoxicity at 70.5 h
1,O=C1CCC(=O)c2oc3ccccc3c2N1,-5.85%
2,NC(=O)c1nc(-c2cccc(Cl)c2)oc1N,-14.1%
3,COc1ccc(N2CCCC3(C2)CN(c2nncs2)CCO3)cc1 (configuration not stated),1.09%
4,Cc1ccoc1C(=O)N1C[C@@H]2COC[C@]2(CNS(C)(=O)=O)C1,-3.33%
5,CN(Cc1cn2c(n1)CN(C(=O)c1cccnc1)CC2)Cc1ccco1,-2.78%
6,Cn1cc(C2CC3(CCN(C(=O)c4cccs4)CC3)NC2=O)cn1 (configuration not stated),1.02%
7,O=C1NC2(CCN(C(=O)Cc3ccsc3)CC2)CC1c1ccccc1 (configuration not stated),0.488%
8,CN(Cc1cn2c(n1)CN(C(=O)c1cccn1C)CC2)Cc1ccco1,9.36%
9,Cc1cccc(C(=O)N2CCn3cnc(COCC4CC4)c3C2)c1,-5.71%
10,CN(Cc1cn2c(n1)CN(C(=O)C1CCCO1)CC2)Cc1ccco1 (configuration not stated),-3.64%
11,Cc1ncsc1CN1CC[C@H]2OCC[C@@]2(C(=O)N2CCCC2)C1,-1.98%
12,Cc1cccc(C(=O)N2CCn3cnc(COCC4CC4)c3C2)n1,-2.97%
13,CCOCC(=O)N1CCn2cc(CN(C)Cc3ccco3)nc2C1,-0.359%
14,O=C(NCC1CC1)C1CN(C(=O)c2ccco2)CC12CCOCC2 (configuration not stated),-1.19%
15,Cc1occc1C(=O)N1CC(C(=O)N2CCOCC2)C2(CCOCC2)C1 (configuration not stated),6.2%
16,Cc1ccc(CN2CCC3(CC2)CC(NC(=O)c2ccccn2)CO3)o1 (configuration not stated),-2.22%
17,Cc1csc([C@H]2C[C@@H]3CCN(C(=O)c4ccnnc4)C[C@H]3O2)n1,-1.58%
18,O=C(c1ccccc1)N1CC(C(=O)N2CCOCC2)C2(CCOCC2)C1 (configuration not stated),7.01%
19,CN1CC(=O)N(c2cccc(F)c2)CC12CCN(Cc1ccco1)C2 (configuration not stated),-5.08%
20,CN1CC(=O)N(c2cccc(F)c2)CC12CCN(Cc1ccccn1)C2 (configuration not stated),-1.03%
21,CCC1=N[C@@]2(CC[C@@H]3CN(S(=O)(=O)CC(C)C)C[C@@H]32)C(=O)N1CC1CC1,0.026%
22,COCC1CN(C(=O)N2CCCC2)Cc2cnn(CC3CCCC3)c21 (configuration not stated),-1.96%
23,Cn1ncc2c1C(COCC1CC1)CN(C(=O)Cc1ccsc1)C2 (configuration not stated),-2.83%

row,SMILES,cytotoxicity at 70.5 h
1,CN(C)CC(=O)N1C[C@@H](Oc2ccccn2)[C@H]2OCCC[C@H]21,9.63%
2,O=C(Cc1ccsc1)N1CCn2cc(Cn3cncn3)nc2C1,2.98%
3,O=C(Cc1ccsc1)N1C[C@@H]2C[C@@H](c3nnc(C4CC4)o3)O[C@@H]2C1,4.61%
4,Cn1nccc1C(=O)N1CCCC2(CCN(c3ccsc3)C2=O)C1 (configuration not stated),10.3%
5,Cc1nccc([C@@H]2C[C@@H]3CCN(Cc4cccs4)C[C@H]3O2)n1,4.44%
6,CNc1nnc(CCn2nc(C)c(Br)c2C)s1,19.6%
7,O=C(Cn1nc(C(F)(F)F)c(Cl)c1C1CC1)NN1CCOCC1,12.9%
8,CN(Cc1cnn(C)c1)C(=O)c1cc(C(F)(F)F)n(C)n1,-15.3%
9,Cc1nnc(NC(=O)C(C)n2ncc(Br)c2C)s1 (configuration not stated),24.3%
10,Cn1cc(Br)c(C(=O)NCCCn2cc(Cl)cn2)n1,0.918%
11,Cc1nc(NC(=O)C(C)n2ncc(Br)c2C)sc1C (configuration not stated),1.11%
12,Cc1nn(CCC(=O)N2CCN(Cc3cnn(C)c3C)CC2)c(C)c1Br,1.42%
13,CCn1cc(NC(=O)c2c(C)nn(C)c2C)c(C(N)=O)n1,19%
14,CCn1ncc(CN(C)C(=O)c2cc(C(F)(F)F)n(C)n2)c1C,-17.2%
15,CNC(=O)c1nn(C)cc1NC(=O)C(C)n1ncc(Cl)c1C (configuration not stated),-6.57%
16,CCn1ncc(Cl)c1CN(C)C(=O)CCn1ncc(Br)c1C,-18%
17,CCn1cc(S(=O)(=O)NC2CCCC2)cn1,-11.8%
18,COc1ccc(OC)c(C(C)NS(=O)(=O)c2cnn(C)c2)c1 (configuration not stated),-12%
19,CCS(=O)(=O)N1CCN(C(=O)c2ccc(Cn3cc(Br)cn3)cc2)CC1,-6.35%
20,Cc1cccc(OCc2ccc(C(=O)N3N=CCC3(O)C(F)(F)F)o2)c1 (configuration not stated),9.08%
21,Cn1nc(C(=O)N2CCOCC2)cc1C(=O)Nc1ncc(Cl)cc1Cl,14.9%
22,FC(F)(F)c1cc(-c2cccs2)nc(N2CCN3CCCC3C2)n1 (configuration not stated),-13.6%
23,Cc1n[nH]c(C)c1S(=O)(=O)N(C)Cc1nn(C)c(Cl)c1Cl,22.3%

row,SMILES,cytotoxicity at 70.5 h
1,Cc1nn(C)c(C)c1CN(C)S(=O)(=O)c1c(C)n[nH]c1C,-5.08%
2,CCN(Cc1c(C)nn(CC)c1C)S(=O)(=O)c1cn(C)nc1C,-2.98%
3,CCN(Cc1c(C)nn(CC)c1C)S(=O)(=O)c1cnn(C)c1C,14.5%
4,CCN(Cc1c(C)nn(CC)c1C)S(=O)(=O)c1cnn(C)c1,-6%
5,Cn1ncc(C(=O)O)c1C(=O)Nc1nc2ccccc2s1,14.7%
6,CCOc1ccc2nc(NC(=O)c3c(C(=O)O)cnn3C)sc2c1,-14.2%
7,Cn1ncc(C(=O)O)c1C(=O)Nc1nc2ccc(Br)cc2s1,14.8%
8,COC(=O)c1cc(C2CC2)nc2c(C#N)cnn12,25%
9,CCn1ccc(-c2cc(C(=O)O)n3nc(C)c(Cl)c3n2)n1,-9.11%
10,CCC(CCNC(=O)c1cc(C2CC2)nc2c1cnn2C)n1cccn1 (configuration not stated),-19.4%
11,CCC(=O)NCCNC(=O)c1nn(C)c(C)c1Cl,-11.9%
12,CCn1cc(-c2cc(C(F)(F)F)nc(NC3CCCC3)n2)c(C)n1,-6.79%
13,CCOC(=O)CNC(=O)c1cc(-c2ccccc2)nc2ncnn12,1.18%
14,N#Cc1cn[nH]c1NCc1cc(Cl)cc(Cl)c1O,17.4%
15,COc1cc(NCc2cccnc2)c(-c2nn[nH]n2)cc1OC,-11.1%
16,COc1ccc(-c2cc(C3(O)CCCC3)on2)cc1,1.51%
17,Nc1nnc(Cn2nnc(-c3ccccc3F)n2)s1,-12.8%
18,Nc1nnnn1NCc1cccc2ccccc12,-11.8%
19,CCCC(C)(O)c1cc(C(N)=O)no1 (configuration not stated),-9.46%
20,Clc1cccc(-n2cnnn2)c1N1CCCCC1,29.1%
21,Clc1cccc(-n2cnnn2)c1N1CCOCC1,-5.42%
22,COc1c(CC2CC(C(=O)O)=NO2)c(Br)c2c(c1OC)OCO2 (configuration not stated),-7.83%
23,COc1c(CC2CC(CO)=NO2)c(Br)c2c(c1OC)OCO2 (configuration not stated),-0.342%

row,SMILES,cytotoxicity at 70.5 h
1,COc1cc(CC2CC(c3ccc4c(c3)OCO4)=NO2)cc2c1OCO2 (configuration not stated),-9.64%
2,COc1cc(C2SCC(=O)Nc3[nH]ncc32)c(OC)c2c1OCO2 (configuration not stated),-12.7%
3,COc1c(C2CC(=O)Nc3[nH]ncc32)cc2c(c1OC)OCO2 (configuration not stated),-13.5%
4,O=C1CC(c2cccc(Cl)c2)c2snc(C(=O)O)c2N1 (configuration not stated),-5.92%
5,CC(=O)c1c(O)ccnc1C(F)(F)F,-3.79%
6,Cc1cc2ccccc2n1CC(=O)NCC(=O)N1CCOCC1,-13.2%
7,O=C(c1cc(-c2cccs2)cs1)N1CCOCC1,-8.23%
8,CCN1CCN(C(=O)c2cc(-c3cccs3)cs2)CC1,15.8%
9,O=C(NC1CCCC1)c1cc(Sc2ncccn2)ccn1,-13.6%
10,Cc1cc(C(=O)Nc2cnn(CC(F)(F)F)c2)nc(N2CCOCC2)n1,-13.4%
11,Cc1c(NC(=O)c2cccc(Br)c2)c(C(=O)N(C)C)nn1C,22.7%
12,CCn1nc(C)c(C(=O)NCc2csc(C3CC3)n2)c1C,1.51%
13,Cc1cccc2c1cnn2CCC(=O)NCc1csc(C2CC2)n1,-8.07%
14,Cc1ccnn1CC(=O)Nc1cc(-c2ccncc2)[nH]n1,-6.24%
15,CN1CCN(C(=O)c2cc(-c3ccco3)cs2)CC1,-20.5%
16,CC1CCCN(C(=O)c2cc(-c3ccco3)cs2)C1 (configuration not stated),-14.8%
17,CC1CCCN(C(=O)c2ccc(-c3ccco3)o2)C1 (configuration not stated),-22.7%
18,CCn1cc(N2Cc3nc(N4CCC(O)CC4)ncc3C2=O)cn1,2.23%
19,Cc1nc(Nc2cnccn2)cc(C2CCN(c3ncccn3)C2)n1 (configuration not stated),-12.7%
20,CN[C@H]1CC[C@]2(CC1)CNC(=O)c1cc(C)ccc1O2,-8.44%
21,CC(=O)N(C)[C@H]1CC[C@]2(CC1)CNC(=O)c1cc(C)ccc1O2,-11.3%
22,COCC(=O)N1CCCCC1c1ccncn1 (configuration not stated),10.7%
23,O=C(O)COc1ccccc1CN1CCCC1c1cnccn1 (configuration not stated),-9.06%

row,SMILES,cytotoxicity at 70.5 h
1,COCC(=O)N1CCC(C(=O)c2cc(C)cnc2N)CC1,-1.24%
2,COCCC(=O)N1CCC(C(=O)c2cc(C)cnc2N)CC1,-8.64%
3,COCC(=O)N1CCCCC1c1ccnc(Nc2cnccn2)n1 (configuration not stated),-7.98%
4,Cc1nc(C2CCCN2C(=O)COc2ccccc2)ncc1C(N)=O (configuration not stated),-4.1%
5,Cc1nc(C2CCCN2C(=O)Cc2ccc(F)cc2)ncc1C(N)=O (configuration not stated),-8.28%
6,Cc1ncsc1CN1CC[C@H]2OCC[C@@]2(C(=O)NC2CC2)C1,-2.8%
7,O=C(c1ccccc1)N1C[C@H]2CCC[C@@]2(COCc2ccncc2)C1,0.753%
8,O=C(c1ccccc1F)N1C[C@H]2CCC[C@@]2(COCc2ccncc2)C1,-0.88%
9,O=C(C1=CCCC1)N1C[C@H]2CCC[C@@]2(COCc2ccncc2)C1,3.16%
10,O=C(NC1COC2(CCN(CC3CCC3)CC2)C1)c1ccccn1 (configuration not stated),1.22%
11,Cn1cnc2c1C(COCC1CC1)CN(C(=O)c1cscn1)C2 (configuration not stated),-5.14%
12,Cc1ccc(C(=O)N2C[C@@H]3[C@@H](C2)OCC(=O)N3Cc2cccnc2)o1,-2.11%
13,O=C(c1ccoc1)N1C[C@@H]2[C@@H](C1)OCC(=O)N2Cc1cccnc1,-3.91%
14,CS(=O)(=O)N1C[C@@H](Oc2ccccn2)[C@H]2OCCC[C@H]21,-2.17%
15,CCS(=O)(=O)N1C[C@@H](Oc2ccccn2)[C@H]2OCCC[C@H]21,25.1%
16,O=C1COC2(CCN(Cc3nccs3)CC2)CN1CC1CC1,6.87%
17,Cn1cccc1CN1CCC2(CC1)CCN(C(=O)c1cnccn1)CC2,10.8%
18,c1cc(CNCC2OCCc3cn(CC4CC4)nc32)cs1 (configuration not stated),-4.34%
19,Cc1ncsc1CN1Cc2cnn(C)c2C(COCC2CC2)C1 (configuration not stated),-1.88%
20,CN1CC(=O)N(c2cccc(F)c2)CC12CCN(Cc1ccncc1)C2 (configuration not stated),9.43%
